# Legend:
# [1] = tested on: Arachnoid cell AC07; assay: Cell viability, MTT assay; format: cell-based; conditions: NF2+/+, 72 hrs
# Procedure: (§1) Cells were plated at 3 × 10^3 cells per well in 96-well plates overnight and treated with various concentrations of Pak inhibitors for 72 hours. Cell viability was measured by MTT assay and the half maximal inhibitory concentration (IC50) was calculated.
# [2] = tested on: Benign Ben-Men-1; assay: Cell viability, MTT assay; format: cell-based; conditions: for IC50: NF2−/−, 72 hrs, MTT; for effect on growth of cells: Ben-Men, 3 days, GSK690693 effect only at high doses
# Procedure: as §1
# [3] = tested on: Benign MN328; assay: Cell viability, MTT assay; format: cell-based; conditions: NF2+/+, 72 hrs
# Procedure: as §1
# [4] = tested on: Malignant KT21-MG1; assay: Cell viability, MTT assay; format: cell-based; conditions: for IC50: NF2−/−, 72 hrs, MTT; for effect on growth of cells: KT21, 3 days, GSK690693 effect only at high doses
# Procedure: as §1
# [5] = tested on: Malignant MN525; assay: Cell viability, MTT assay; format: cell-based; conditions: NF2+/+, 72 hrs
# Procedure: as §1
# [6] = tested on: KT21 cells; assay: Apoptosis, Annexin V positive cells by flow cytometry; format: cell-based; conditions: 3 days, vs DMSO
# Procedure: For detection of apoptosis, subconfluent cells were plated in 60-mm plate and treated with inhibitors for 3 days. Cells were collected, washed and resuspended in 1x binding buffer with Annexin V-EGFP and propidium iodide (BioVision, CA) and incubated at room temperature for 5 min in dark. Apoptosis was measured using FACS with collecting 10,000 events per sample.
# [7] = tested on: Ben-Men cells; assay: Immunoblot of signaling pathways; format: cell-based
# Procedure: (§2) Protein concentration was determined, and equal amount of total proteins were separated by SDS-PAGE. […] GAPDH and β-actin were used as loading control.
# [8] = tested on: KT21 or Ben-Men cells; assay: Immunoblot of signaling pathways; format: cell-based
# Procedure: as §2
# [9] = tested on: KT21-MG1-Luc5D intracranial xenografts; assay: Orthotopic meningioma model, bioluminescence imaging; conditions: SCID mice; oral gavage 90 mg/kg/day; 2 weeks; BLI
# Text: Eight-week-old SCID mice were anesthetized with ketamine and their heads were stabilized in a small animal stereotaxic instrument. A midline sagittal incision was made on the cranial skin. A burr hole was drilled in the skull with coordinated 1.5 mm anterior and 1.5 mm lateral to the right from the bregma and a 5-μl Hamilton syringe loaded with cells was slowly inserted through the burr hole and ~0.5 mm downward to the skull base. The incision was closed using surgical absorbable gut suture.
# Mice transplanted with meningioma cells were imaged using Xenogen IVIS Spectrum (Caliper, MA). Mice were injected intraperitoneally with Rediject D-Luciferin Ultra at 150 mg/kg under anesthetized with isofluorane. Luciferase activity was measured and all bioluminescence imaging was conducted when perk signal was reached. Once tumors were established (~3 weeks post-transplantation), mice were divided into groups for shRNA studies or drug treatments.
# For drugs treatment, mice were dosed with Pak inhibitors daily for 14–21 days and tumor growth was monitored every week by BLI. Mean luminescence for each treatment groups (n = 5) was calculated as described previously.
Structure (SMILES),IC50 [1] [µM],IC50 [2] [µM],IC50 [3] [µM],IC50 [4] [µM],IC50 [5] [µM],number of apoptotic cells [6],basal level (expression) of β-catenin [7],phosphorylation of β-catenin [7],phosphorylation of Pak and Mek1 (at Ser298) ([8]; inhibitors at IC50 concentration),impaired KT21 tumor growth compared to vehicle cohort [9] [%],effect on growth of cells [2],effect on growth of cells [4],Pak activity ([8]; immunoblot)
CCn1c(=O)c(-c2ccc(-c3cncs3)cc2Cl)cc2cnc(Nc3ccc(N4CCN(C)CC4)cc3)nc21 [Frax597],1.18,0.393,2.81,2.93,1.59,substantial increase,did not impact,diminished,dramatically inhibited,50,,,
CCn1c(-c2nonc2N)nc2c(C#CC(C)(C)O)ncc(OC[C@H]3CCCNC3)c21 [GSK690693],> 20,3.27,> 20,4.24,> 20,,,,,,impeded the growth,impeded the growth,
"Oc1ccc2ccccc2c1SSc1c(O)ccc2ccccc12 [IPA3, reference compound]",,,,,,,induction,,,,,,paradoxical stimulation
O=C(NOC[C@H](O)CO)c1ccc(F)c(F)c1Nc1ccc(I)cc1F [PD325901],> 20,> 20,> 20,> 7,> 20,,,,,,no effect,no effect,

# — article PMC4385830, “Group I Paks as therapeutic targets in NF2-deficient meningioma” (Oncotarget, 2015)
